Laboratory results reported in the NIST ThermoML archive (doi:10.1021/je0500431).

Assay: xn = mol fraction of the nth substance listed
Settings: Ring tensiometer

OCc1ccccc1 [benzenemethanol] + CC(C)O
surface tension liquid-gas [mN/m]
Settings	x2 = 0	x2 = 0.0029	x2 = 0.005	x2 = 0.0076	x2 = 0.0117	x2 = 0.0207	x2 = 0.0329	x2 = 0.0494
293.15 K	39.05	37.69	37.53	37.21	36.95	36.79	36.56	36.06
298.15 K	38.58	37.3	37.09	36.8	36.53	36.37	36.15	35.53
303.15 K	38.12	36.95	36.68	36.43	36.13	35.97	35.78	35.09
308.15 K	37.63	36.62	36.32	36.05	35.75	35.55	35.41	34.61
313.15 K	37.16	36.29	35.92	35.68	35.39	35.14	35.04	34.11
318.15 K	36.63	35.89	35.48	35.27	35.04	34.73	34.62	33.63
323.15 K	36.18	35.55	35.04	34.92	34.64	34.29	34.22	33.22

OCc1ccccc1 [benzenemethanol] + CCC(C)O
surface tension liquid-gas [mN/m]
Settings	x2 = 0	x2 = 0.0026	x2 = 0.0056	x2 = 0.0078	x2 = 0.0107	x2 = 0.0246	x2 = 0.0366	x2 = 0.0512
293.15 K	39.05	37.5	37.14	36.95	36.4	36.07	35.65	35.32
298.15 K	38.58	37.08	36.75	36.52	36.05	35.64	35.25	34.88
303.15 K	38.12	36.63	36.31	36.12	35.72	35.18	34.83	34.4
308.15 K	37.63	36.2	35.97	35.71	35.39	34.77	34.46	34
313.15 K	37.16	35.75	35.55	35.31	35.03	34.37	34.03	33.54
318.15 K	36.63	35.35	35.17	34.9	34.67	33.95	33.62	33.07
323.15 K	36.18	34.95	34.8	34.49	34.34	33.5	33.24	32.7
